For one data set, the target named is T1, human COX-2 (rhCOX-2) (Homo sapiens, UniProt P35354).
T1 construct: made in house; host or cells: Sf9 or CHO cells (microsomal preparation)
T1 sequence (P35354 18-604): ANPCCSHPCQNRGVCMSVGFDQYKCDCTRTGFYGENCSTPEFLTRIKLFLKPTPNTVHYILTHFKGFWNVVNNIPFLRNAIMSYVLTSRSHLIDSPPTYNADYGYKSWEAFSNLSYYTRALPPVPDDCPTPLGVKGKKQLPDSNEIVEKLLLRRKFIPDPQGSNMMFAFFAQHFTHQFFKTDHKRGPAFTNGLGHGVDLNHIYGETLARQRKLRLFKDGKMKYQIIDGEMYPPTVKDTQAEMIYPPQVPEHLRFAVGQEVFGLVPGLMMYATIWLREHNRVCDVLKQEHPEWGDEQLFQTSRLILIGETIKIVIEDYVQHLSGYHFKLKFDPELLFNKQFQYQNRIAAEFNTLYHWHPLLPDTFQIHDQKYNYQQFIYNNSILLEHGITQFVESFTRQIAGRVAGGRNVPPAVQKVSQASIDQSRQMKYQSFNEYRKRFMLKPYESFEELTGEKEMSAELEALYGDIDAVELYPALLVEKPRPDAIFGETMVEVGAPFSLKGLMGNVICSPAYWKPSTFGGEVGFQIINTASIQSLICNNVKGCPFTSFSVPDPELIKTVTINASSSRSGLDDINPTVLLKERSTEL
The experiment in a line: inhibition of microsomal human recombinant COX-2 (PGH2 converted to PGF2a, quantified by EIA). The class given is biochemical. As to conditions: for inhibition at 3 µM: rhCOX-2, at 3 μM; for IC50: rhCOX-2, value in parentheses = IC50, 30 μM arachidonic acid, read-out: % Inhib of rhCOX-2 (IC50); for inhibition at 1 µM: rhCOX-2, at 1 μM; for inhibition at 3.3 µM: rhCOX-2, at 3.3 μM (* sodium salt for Example 19). How it is done:
(§1) The microsomal human recombinant enzymes were diluted with buffer (100 mM Tris, pH 7.8 at 37° C.) containing 0.5 mM phenol (964 μl total volume). The enzyme preparations were preincubated with vehicle (DMSO) or compounds in DMSO (1% DMSO in final assay) for 30 min at […]
(§2) The reaction was incubated for 35 s (maximum level of PGH2 accumulation as determined from time course studies), and terminated by addition of 50-60 μL of SnCl2 (1 mg/ml) in 0.1N HCl. PGH2 is quantitatively converted to PGF2a by this reaction ([…] of total conversion). The pH of each tube is adjusted to pH 3.0-3.5 with 1N NaOH and extracted twice with 1.5 ml of ethyl acetate (75-90% efficiency per extraction). Combined ethyl acetate layers were dried under N2 (g) and redissolved in EIA buffer (2.0 ml), and PGF2a was quantified by EIA.

For another data set, the system named is COX-2. The note with it: Glaser et al., Eur. J. Pharmacol. 281, 107-111 (1995); cited from earlier work.
The conditions of data set [1]: cited from earlier work.
In another data set the target is T2, human COX-1 (rhCOX-1) (Homo sapiens, UniProt P23219).
T2 construct: made in house; host or cells: Sf9 or CHO cells (microsomal preparation)
As to the kind of experiment: inhibition of microsomal human recombinant COX-1 (PGH2 converted to PGF2a, quantified by EIA). In kind it is biochemical. As to the method:
as §1, §2

For data set [2] the following is noted: Rogers et al., Neurology 43, 1609-1611 (1993); cited from earlier work.
A further data set concerns prostaglandin synthesis. The note with it: Humber et al., J. Med. Chem. 31, 1712-1719 (1988); U.S. Pat. No. 4,686,213; cited from earlier work.
For data set [3] the following is noted: Humber et al., J. Med. Chem. 31, 1712-1719 (1988); cited from earlier work.
The mark [4] stands for this setting: Table 2, read-out: % Inhib of rhCOX-2.
[5] abbreviates: Table 1, rhCOX-1, at 90 μM, read-out: % Inhibition of rhCOX-1.
Setting [6] is: Table 2, rhCOX-1, at 90 μM, read-out: % Inhibn of rhCOX-1.
[7] abbreviates: Table 1, read-out: % Inhib of rhCOX-2.
Where [8] appears, read: Table 3, read-out: Inhib rhCOX-2.
Setting [9] is: Table 3, rhCOX-1, at 90 μM (* sodium salt for Example 19), read-out: % Inhib rhCOX-1.

Structures can show the parent of a compound that is named as a salt. Where two headings read alike, the source gives them in different places.

The term IC50 denotes the midpoint of a concentration-inhibition curve.

T2 sequence (P23219 24-599): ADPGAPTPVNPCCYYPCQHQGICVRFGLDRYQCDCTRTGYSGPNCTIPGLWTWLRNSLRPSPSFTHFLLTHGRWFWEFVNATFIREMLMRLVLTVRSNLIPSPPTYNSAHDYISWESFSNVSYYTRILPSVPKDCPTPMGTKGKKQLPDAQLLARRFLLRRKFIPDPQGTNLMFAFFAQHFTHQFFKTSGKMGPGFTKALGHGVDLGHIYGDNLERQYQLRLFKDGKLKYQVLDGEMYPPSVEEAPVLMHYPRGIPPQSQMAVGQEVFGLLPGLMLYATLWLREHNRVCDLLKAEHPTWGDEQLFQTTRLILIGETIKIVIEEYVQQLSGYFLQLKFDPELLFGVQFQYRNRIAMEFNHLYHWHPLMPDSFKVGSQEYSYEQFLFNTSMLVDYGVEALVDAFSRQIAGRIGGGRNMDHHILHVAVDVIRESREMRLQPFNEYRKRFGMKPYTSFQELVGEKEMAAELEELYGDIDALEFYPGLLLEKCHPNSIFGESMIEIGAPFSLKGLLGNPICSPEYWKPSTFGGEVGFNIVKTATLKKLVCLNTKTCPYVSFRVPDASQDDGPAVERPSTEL

With `CCC1(CC(=O)O)CCC(=O)c2c1[nH]c1ccccc21` (stereo not shown) [Example 9, [1-Ethyl-4oxo-2,3,4,9-tetrahydro-1H-(carbazol-1-yl)]-acetic acid], the inhibition at 3 µM at human COX-2 (rhCOX-2) (setting [4]) was 26%. For the compound `CCc1cccc2c3c([nH]c12)C(CC)(CC(=O)O)OCC3` (stereo not shown) [etodolac], in the data set on COX-2, the “selectivity for inhibition of COX-2” value is given as “tenfold”. For the same compound, the G.I. safety entry in data set [1] (in vivo) was “improved G.I. safety”. `CCCC1(CC(=O)O)OCC(=O)c2c1[nH]c1ccccc21` (stereo not shown) [Example 2, (1-Propyl-4-oxo-1,3,4,9-tetrahydro-pyrano[3,4-b]indol-1-yl)-acetic acid]: at human COX-2 (rhCOX-2) (Table 1), the half-maximal inhibitory concentration (IC50) is 3200 nM. The inhibition at 90 µM on human COX-1 (rhCOX-1) (setting [5]) stood at 44%. In the case of `CCC1(CC(=O)O)CCC(=O)c2c1[nH]c1c(F)c(F)ccc21` (stereo not shown) [Example 14, (7.8-Difluoro-1-ethyl-4-oxo-2,3,4,9-tetrahydro-1H-(carbazol-1-yl))-acetic acid], the IC50 on human COX-2 (rhCOX-2) (Table 2) stood at 700 nM. At human COX-1 (rhCOX-1) (Table 2, rhCOX-1, at 23 μM, read-out: % Inhibn of rhCOX-1), the inhibition at 23 µM amounted to 50%. For `CCCC1(CC(=O)O)CCC(=O)c2c1[nH]c1cc(F)cc(F)c21` (stereo not shown) [Example 17, (5,7-Difluoro-1-propyl-4-oxo-2,3,4,9-tetrahydro-1H-(carbazol-1-yl))-aceticacid], the inhibition at 1 µM on human COX-2 (rhCOX-2) (setting [4]) amounted to 13%. In the case of `CCC1(CC(=O)O)CCC(=O)c2c1[nH]c1c(C(C)C)cccc21` (stereo not shown) [Example 11, [1-Ethyl-8-isopropyl-4-oxo-2,3,4,9-tetrahydro-1H-(carbazol-1-yl)]-acetic acid], at human COX-2 (rhCOX-2) (setting [4]), the inhibition at 3 µM amounted to 40%. For the same compound, the inhibition at 90 µM at human COX-1 (rhCOX-1) (setting [6]) was 85%. Turning to `COCC1(CC(=O)O)OCC(=O)c2c1[nH]c1ccccc21` (stereo not shown) [Example 3, (1-Methoxymethyl-4-oxo-1,3,4,9-tetrahydro-pyrano[3,4-b]indol-1-yl)-acetic acid], the inhibition at 3 µM on human COX-2 (rhCOX-2) (setting [7]) worked out at 8%. As for `CCc1cccc2c3c([nH]c12)C(CC)(CC(=O)O)OCC3=NNS(C)(=O)=O` (stereo not shown) [Example 19, [1,8-Diethyl-4-(methanesulfonyl-hydrazono)-1,3,4,9-tetrahydro-pyrano [3,4-b]indol-1-yl]-acetic acid sodium salt], the inhibition at 3.3 µM on human COX-2 (rhCOX-2) (setting [8]) amounted to 50%. On human COX-1 (rhCOX-1) (setting [9]), the inhibition at 90 µM was found to be 96%. In the case of `COc1ccc2c(c1)c(CC(=O)O)c(C)n2C(=O)c1ccc(Cl)cc1` [indomethacin], in data set [2], the “usefulness in the treatment of Alzheimer's disease” value is recorded as “useful in the treatment of Alzheimer's disease”. Moreover, the “selectivity for inhibition of COX-2” value with COX-2 is reported as “relatively non-selective inhibitor of COX-2”. Moreover, the G.I. safety result in data set [1] (literature) is reported as “adverse G.I. side effects”.

As for `CCc1cccc2c3c([nH]c12)C(CC)(CC(=O)O)OCC3=O` (stereo not shown) [4-oxo metabolite], the “activity in blocking prostaglandin synthesis” value with prostaglandin synthesis is recorded as “active in blocking prostaglandin synthesis”. Also, the “oral in vivo antiinflammatory activity” value in data set [3] was “had oral in vivo antiinflammatory activity”. For the compound `CCC1(CC(=O)O)CCC(=O)c2c1[nH]c1cccc(Cl)c21` (stereo not shown) [Example 12, [1-Ethyl-5-chloro-4-oxo-2,3,4,9-tetrahydro-1H-(carbazol-1-yl)]-acetic acid], the inhibition at 1 µM at human COX-2 (rhCOX-2) (setting [4]) was 12%. In addition, on human COX-1 (rhCOX-1) (Table 2, rhCOX-1, at 30 μM, read-out: % Inhibn of rhCOX-1), the inhibition at 30 µM was determined as 5%. Regarding `CCc1cccc2c3c([nH]c12)C(CC)(CC(=O)O)CCC3=NO` (stereo not shown) [Example 20, (1,8-Diethyl-4-hydroxyimino-2,3,4,9-tetrahydro-1H-carbazol-1-yl)-acetic acid], at human COX-2 (rhCOX-2) (setting [8]), the inhibition at 1 µM turned out to be 18%. For the compound `CCC1(CC(=O)O)OCC(=O)c2c1[nH]c1cccc(Cl)c21` (stereo not shown) [Example 5, (5-Chloro-1-ethyl-4-oxo-1,3,4,9-tetrahydro-pyrano[3,4-b]indol-1-yl)-aceticacid], the IC50 on human COX-2 (rhCOX-2) (Table 1) worked out at 1200 nM. As to `CCCC1(CC(=O)O)CCC(=O)c2c1[nH]c1c(F)ccc(F)c21` (stereo not shown) [Example 16, (5,8-Difluoro-4-oxo-1-propyl-2,3,4,9-tetrahydro-1H-(carbazol-1-yl))-aceticacid], the inhibition at 1 µM at human COX-2 (rhCOX-2) (setting [4]) was determined as 29%. On to `CCC1(CC(=O)O)OCC(=O)c2c1[nH]c1ccccc21` (stereo not shown) [Example 1, (1-Ethyl-4-oxo-1,3,4,9-tetrahydro-pyrano[3,4-b]indol-1-yl)-acetic acid], for which the IC50 on human COX-2 (rhCOX-2) (Table 1) came out at 2100 nM. Also, the inhibition at 90 µM at human COX-1 (rhCOX-1) (setting [5]) was 43%. As to `C=CCC1(CC(=O)O)CCC(=O)c2c1[nH]c1c(F)ccc(F)c21` (stereo not shown) [Example 15, (1-Allyl-5,8-difluoro-4-oxo-2,3,4,9-tetrahydro-1H-(carbazol-1-yl))-acetic acid], the inhibition at 1 µM at human COX-2 (rhCOX-2) (setting [4]) was 30%.

In the case of `CCc1cccc2c3c([nH]c12)C(CC)(CC(=O)O)OCC3=O` (stereo not shown) [Example 4, 1,8-Diethyl-4-oxo-1,3,4,9-tetrahydro-pyrano-[3,4-b]indole-1-acetic acid], the IC50 at human COX-2 (rhCOX-2) (Table 1) was 1900 nM; at human COX-1 (rhCOX-1) (Table 1, rhCOX-1, read-out: % Inhibition of rhCOX-1 (value in parentheses, IC50)) it was above 270000 nM.

On to `CCC1(CC(=O)O)CCC(=O)c2c1[nH]c1c(F)ccc(F)c21` (stereo not shown) [Example 13, (1-Ethyl-5,8-difluoro-4-oxo-2,3,4,9-tetrahydro-1H-(carbazol-1-yl))-acetic acid], for which, on human COX-2 (rhCOX-2) (setting [4]), the inhibition at 1 µM came to 25%.

In the case of `CCc1cccc2c3c([nH]c12)C(CC)(CC(=O)O)CCC3=O` (stereo not shown) [Example 10, [1,8-Diethyl-4-oxo-2,3,4,9-tetrahydro-1H-(carbazol-1-yl)]-acetic acid], the IC50 at human COX-2 (rhCOX-2) (Table 2) was 2000 nM. Besides, the inhibition at 90 µM on human COX-1 (rhCOX-1) (setting [6]) is 26%.

Consider `CCC1(CC(=O)O)OCC(=O)c2c1[nH]c1cccc(Br)c21` (stereo not shown) [Example 6, (5-Bromo-1-ethyl-4-oxo-1,3,4,9-tetrahydro-pyrano[3,4-b]indol-1-yl)-acetic acid], for which, on human COX-2 (rhCOX-2) (Table 1), the half-inhibitory concentration (IC50) was found to be 1100 nM. On to `CCC1(CC(=O)O)OCC(=O)c2c1[nH]c1cccc(C#N)c21` (stereo not shown) [Example 7, 5-Cyano-1-ethyl-4-oxo-1,3,4,9-tetrahydropyrano[3,4-b]indole-1-acetic acid], for which the inhibition at 1 µM at human COX-2 (rhCOX-2) (setting [7]) is 7%.

In the case of `CCc1cccc2c3c([nH]c12)C(CC)(CC(=O)O)OCC3=NO` (stereo not shown) [Example 18, [1,8-Diethyl-4-hydroxyimino-1,3,4,9-tetrahydro-pyrano[3.4-b]indol-1-yl]-ace tic acid], the inhibition at 3.3 µM on human COX-2 (rhCOX-2) (setting [8]) was 50%. The inhibition at 90 µM on human COX-1 (rhCOX-1) (setting [9]) was found to be 96%. For the compound `C=CCc1c(F)ccc2c3c([nH]c12)C(CC)(CC(=O)O)OCC3=O` (stereo not shown) [Example 8, 8-Allyl-1-ethyl-7-fluoro-4-oxo-1,3,4,9-tetrahydropyrano[3,4-b]indole-1-acetic acid], the half-maximal inhibitory concentration (IC50) on human COX-2 (rhCOX-2) (Table 1) stood at 370 nM. In addition, the inhibition at 3 µM on human COX-1 (rhCOX-1) (Table 1, rhCOX-1, at 3 μM) worked out at 78%.

These data come from US5824699A, “Carbazole inhibitors of Cox-2” (American Home Products Corporation, priority 1998, dated 1998).
